Assay results published in the NIST ThermoML archive (doi:10.1016/j.fluid.2012.03.005).

Conditions: for surface tension liquid-gas: Pendant drop shape; for mass density: 101.33 kPa, Liquid, Vibrating tube method

CCCCCCCCCCCCCC[P+](CCCCCC)(CCCCCC)CCCCCC.[Br-] [tetradecyltrihexylphosphonium bromide]
Conditions	mass density [kg/m3]	surface tension liquid-gas [mN/m]
293.15 K	961.7	29.97
297.15 K	959.2	–
298.15 K	958.6	29.32
301.15 K	956.7	–
303.15 K	955.5	28.94
305.15 K	954.3	–
308.15 K	952.4	28.53
309.15 K	951.8	–
313.15 K	949.3	28.15
317.15 K	946.9	–
318.15 K	946.2	27.81
321.15 K	944.4	–
323.15 K	943.1	27.46
325.15 K	941.9	–
328.15 K	940.1	27.12
329.15 K	939.4	–
333.15 K	937	26.78
337.15 K	934.6	–
338.15 K	934	26.57
341.15 K	932.1	–
343.15 K	930.9	26.24
345.15 K	929.7	–
